We go through one substance from patent US11020457B2, “Compositions and methods for protecting the kidney from ischemia reperfusion injury” (University of Virginia Patent Foundation, priority 2013, dated 2021).

Holding throughout (format): in vivo
Test [1] relates to C57BL/6 mice. The test is described as follows: Renal IRI in WT mice: serum iron (ELISA), tissue non-heme iron, liver and serum hepcidin. The method, then:
(§1) All experiments were performed in accordance with the National Institutes of Health and Institutional Animal Care and Use Guidelines. The Animal Care and Use Committee of the University of Virginia approved all procedures and protocols. C57BL/6 mice from the Jackson Laboratory and hepcidin knockout mice (HAMP−/−), a kind gift from Dr Cindy Roy (John Hopkins University) were used in this study. All experiments were performed on 8-10 weeks old male mice. Kidney ischemia-reperfusion surgery was performed as previously reported (44). The core temperature of the mice was maintained between 34° C. and 36° C. using a heating pad. After anesthetizing the mice (ketamine, 12 mg/ml; atropine, 0.48 mg/ml; xylazine, 24 mg/ml; […] mixture administered per 20 g body weight), bilateral flank incisions were made, both renal pedicles were exposed, and cross-clamped for 26 minutes (severe I/R injury) or 24 minutes (mild I/R injury). After the determined ischemia, clamps were removed, and kidneys were allowed to reperfuse for 24 hours. Ambient postoperative air temperature was maintained between 30° C. and 32° C. until mice had fully recovered. Sham-operated animals underwent bilateral flank incisions without clamping of renal pedicles. Twenty-four hours later, mice were euthanized, and tissues were harvested.
Animals were divided into three groups, injected intraperitoneally with water and underwent IRI (IRI), injected intraperitoneally with 50-100 μg hepcidin at different time points prior to IRI (Hepcidin-IRI) or were sham operated (Sham). The experimental design is depicted in FIG. 2a.
Serum iron (Abcam), hepcidin (Intrinsic Lifescience) and IL-6 levels (eBioscience) were measured using commercial ELISA kits, as per manufacturers instructions.
Non-heme iron content in tissue was measured using the method described in published literature with slight modifications (60). Briefly, tissues were accurately weighed, finely cut and placed for 20 hours at 65° C. in a solution of 3M HCl/0.61 M trichloroacetic acid. After cooling to room temperature, the acid extract was spun at 12,000 rpm to collect the supernatant. 0.1 mL of the supernatant was incubated with chromogen solution (1.86 mM bathophenanthroline sulfonate/143 mM thioglycollic acid) for 20 minutes, and OD was measured at 535 nm. A standard curve was generated using an iron standard solution (Ricca Iron AA standard) against water as the blank. Non-heme iron content (μg/g) was calculated using the equation described (60).
For RNA isolation, frozen tissues were re-suspended in RLT buffer (Qiagen Inc, Valencia, Calif.) and homogenized using TissueLyser system (Qiagen Inc, Valencia, Calif.). Total RNA from tissue homogenate was purified using RNAeasy mini kit (Qiagen Inc, Valencia, Calif.) following manufacturers instructions. 1 μg of RNA was used to synthesize cDNA using the iScript cDNA synthesis kit (Bio-Rad). The cDNA template was mixed with iTAQ SYBR green universal super mix (Bio-Rad) and quantitative PCR was carried out on CFX Connect system (Bio-Rad). Predesigned primers for Caspase-3 and Bcl-2 were purchased from Bio-rad. Glyceraldehyde-3-phosphate dehydrogenase (GAPDH) was amplified in parallel and used as the reference gene in quantification. Data is expressed as the relative gene expression and was calculated using the 2 (−ρρC(T)) method.

The subject of test [2] is C57BL/6 mice. The test is described as follows: Renal IRI in WT mice: 4-HNE immunohistochemistry (oxidative stress). As to conditions: hepcidin-treated vs untreated IRI mice, FIG. 4a. The method, then:
as §1, with “Sham-operated animals underwent bilateral flank incisions without clamping of renal pedicles. Twenty-four hours later, mice were euthanized, and tissues were harvested.” left out
Kidney sections were embedded in paraffin, 3 μm sectioned, and stained for 4 Hydroxynonenal (4-HNE) using standard protocols. […] Sections were washed 3 times in NaPO4 buffer, and then incubated in ABC ready-to-use reagent (Vector Labs) for 30 minutes. […]

In test [3] the test system is hepcidin knockout mice (HAMP−/−). The test is described as follows: Mild renal IRI in HAMP-/- mice: 4-HNE staining and immunofluorescence of neutrophils and CD11b cells. As to conditions: for kidney 4-HNE immunoreactivity: hepcidin reconstituted HAMP-/- IRI, FIG. 8c; for kidney neutrophil and CD11b cell infiltration: hepcidin reconstitution in HAMP-/- IRI mice, FIGS. 8e and g. As for the experimental part:
as §1
Kidney sections were embedded in paraffin, 3 μm sectioned, and stained for 4 Hydroxynonenal (4-HNE) using standard protocols. Briefly sections were deparaffanized in xylenes, rehydrated in a series of ethanol rinses from 100% to 70% ethanol, then washed in distilled water. Sections were then incubated in 3% H2O2 in methanol for 20 minutes. After treating with Avidin and Biotin for 15 minutes each (Vector) the sections were blocked in blocking buffer containing 10% donkey serum in sodium phosphate buffer (NaPO4 buffer), at room temperature for 30 minutes. 4-HNE antibody was diluted in 1% BSA in NaPO4 buffer (Abcam; 1:1000) and added to sections overnight at 4° C. Sections were washed 3 times with NaPO4 buffer for 5 minutes each and incubated with biotinylated donkey anti-goat secondary antibody (Vector) for 1 hour. Sections were washed 3 times in NaPO4 buffer, and then incubated in ABC ready-to-use reagent (Vector Labs) for 30 minutes. After another 3 washes with NaPO4 buffer the sections exposed to diaminobenzidine (DAB) for 5 minutes followed by washing with in distilled water. The sections were counter-stained with 1% methylene blue solution, washed in water and dehydrated with xylene. Sections were imaged by using a Zeiss Axio Imager Z2/Apotome Microscope fitted with motorized focus drives and motorized XYZ microscope stage and integrated to a workstation running StereoInvestigator software, version 10.51 (MBF Bioscience, Williston, Vt.) […]

“Also recorded” adds a separate entry of the source.

For “Mouse hepcidin 25 (DTNFPICIFCCKCCNNSQCGICCKT; listed as Mus musculus)”, the “liver hepcidin gene expression” value in the test with C57BL/6 mice [1] (hepcidin before IRI, IRI Vs. Hepcidin-IRI p<0.005, FIG. 1e) is given as “significantly prevented the IRI-induced upregulation of hepcidin”. Besides, the “liver non-heme iron levels” value in the test with C57BL/6 mice [1] (hepcidin before IRI, vs IRI p<0.0001) was “effectively prevented IRI-induced depletion of liver non-heme iron”. Further, in the test on C57BL/6 mice [1] (hepcidin before IRI, vs IRI p<0.001, vs sham p<0.05), the “splenic non-heme iron content” value is given as “significantly higher splenic non-heme iron content than IRI or sham groups”. In the test on C57BL/6 mice [1] (hepcidin before IRI, vs IRI, p<0.05, FIG. 1b), the “kidney non-heme iron content” value was “significantly prevented IRI-induced kidney iron accumulation”. Also, the serum iron levels entry in the test on C57BL/6 mice [1] (hepcidin i.p. before IRI, vs untreated IRI, p<0.001, FIG. 1a) is “significantly reduced IRI-induced increase in serum iron levels”. Also, the serum hepcidin levels result in the test on C57BL/6 mice [1] (hepcidin-treated IRI vs sham, FIG. 1f) was “not significantly different between hepcidin-treated and sham groups”. The “kidney 4-HNE immunoreactivity (oxidative stress)” value with C57BL/6 mice [2] is given as “reduced the reactivity to 4 HNE; also recorded: markedly reduced”; with C57BL/6 mice [2] (listed as hepcidin) it was “far less 4-HNE immunoreactivity”. Besides, the “kidney 4-HNE immunoreactivity” value was “little reactivity to 4 HNE” in test [3] and “far less immunoreactivity to 4-HNE” in test [3] (listed as hepcidin). For the same substance, the “kidney neutrophil and CD11b cell infiltration” value is “dramatically reduced” in test [3] and “almost completely prevented kidney injury-associated neutrophil or CD11b cell infiltration” in test [3] (listed as hepcidin).
